Experimental data taken from US20260306464A1, “LINAPRAZAN GLURATE FOR TREATING GASTROESOPHAGEAL REFLUX DISEASE (GERD)” (Cinclus Pharma Holding AB (publ), priority 2023, published 2026).

Assays:
[1] = Dynamic vapour sorption (DVS) analysis; format: physicochemical
Protocol: In some embodiments, Form 1 of the HCl salt of linaprazan glurate is stable at a relative humidity up to 90% at a temperature of 25° C.

[2] = LEED study: heartburn assessed by mRESQ-eDiary; format: in vivo, human
Excerpt: Relief of reflux-related symptoms may be assessed based on the modified Reflux Symptom Reflux Questionnaire-electronic Diary (mRESQ-eDiary), which is an electronic symptom diary developed for use in partial responders to proton pump inhibitors. mRESQ-eD has three domains (i.e., heartburn, other GERD signs/symptoms and regurgitations/reflux) and eight items (Andrae et al., Clin. Transl. Gastroenterol. 2020, 11(1): e00117).
(§1) The study was a randomized, double-blind, active comparator-controlled study with a parallel group design including four arms with linaprazan glurate and one arm with lansoprazole. Pharmacokinetic (PK) blood sampling pre-dose, close before the first and the second dose administration was performed at Day 7, Day 14 and Day 28 visits days in all patients. 248 patients with erosive esophagitis due to GERD LA grade C or D and patients with erosive esophagitis due to GERD LA grade A or B with at least partial symptom response but still endoscopically unhealed after 8 weeks history of standard treatment healing course with PPI, were randomized.
(§2) Randomization to one of the treatments with linaprazan glurate 25 mg, 50 mg, 75 mg, 100 mg twice daily (BID), or lansoprazole 30 mg once daily (QD) was based on a 1:1:1:1:1 scheme. One site could not enroll more than about 20% of the overall number of patients (48 patients per site).
The duration of each patient's participation in the study, including screening, blind treatment period and open-label treatment period, was approximately 60 days. The patients were randomized for 4 weeks (28 days, −2/+5 days) of double-blind treatment and were provided with IMP for 35 days (including one additional blister pack dispensed at Visit 2/Day 0) to allow for treatment up to the visit window. […] Following the endoscopic evaluation, all patients received subsequent 4 weeks of open-label treatment with lansoprazole 30 mg QD. Repeated symptom evaluation to detect symptom pattern was assessed during this period.
Four doses of linaprazan glurate (25 mg, 50 mg, 75 mg, 100 mg, and dummies) were administered as tablets twice daily. The active comparator lansoprazole 30 mg and its dummy were administered as capsules once daily in the morning. The study drugs were taken with 100 mL of noncarbonated water at least 30 minutes prior to meals. The duration of double-blind treatment was 28 days −2/+5 days. To blind treatment, each patient received 2 tablets (containing doses of linaprazan glurate (LG) or its dummy) and one capsule (containing lansoprazole or its dummy) in the morning and 2 tablets (containing doses of linaprazan glurate (LG) or its dummy) in the evening, according to the scheme below:
A secondary objective of the study was the safety and tolerability of the four dose levels of linaprazan glurate and lansoprazole, with lansoprazole serving as the active comparator. Another secondary objective of the study was the reflux related symptom pattern during the initial 4 weeks treatment with four dose levels of linaprazan glurate and with lansoprazole, and the symptom pattern during the subsequent additional 4 weeks (weeks 5-8) open-label treatment with lansoprazole 30 mg QD. Heartburn-free 24-hour days and 24-hour days with at most mild heartburn symptoms were assessed based on modified eDiary (mRESQ-eD), including splits into day- and nighttime evaluations.
Reflux related symptoms were assessed based on a modified RESQ-eDiary (mRESQ-eD). Patients were asked to report every 12-hours, once before the morning dose and once before the evening dose of the Investigational Medicinal Product (IMP).

[3] = LEED study: endoscopic healing of erosive esophagitis / LA grade improvement after 4 weeks; format: in vivo, human; conditions: lansoprazole 30 mg QD
Excerpt: The severity of esophagitis is typically indicated using the Los Angeles (LA) classification of reflux esophagitis, which is based on an endoscopic assessment of the patient. The LA grade scoring system divides reflux esophagitis into four categories (LA grade A to D) based on the extent of esophageal mucosal breaks. […] LA grade C esophagitis is defined as one or more mucosal breaks that are continuous between the tops of two mucosal folds, but which involves less than 75% of the esophageal circumference. The most severe form, LA grade D esophagitis, is defined as one or more mucosal breaks involving at least 75% of the esophageal circumference (Lundell et al., Gut 1999, vol. 45, p. 172-180).
As used herein, the terms “improvement of the LA grade” and “LA grade improvement” refer to one or more steps from one LA grade to a lower LA grade (such as from grade D to grade C, B or A) or to being healed. In some embodiments, the improvement of the LA grade is 1 step. In some embodiments, the improvement of the LA grade is 2 steps. In some embodiments, the improvement of the LA grade is 3 steps. In some embodiments, the improvement of the LA grade is 4 steps.
The study included patients with erosive esophagitis (eGERD). Patients were divided into two cohorts, one with patients having moderate to severe eGERD (LA grade C/D) and one with patients having milder eGERD (LA grade A/B) with a history of only partial response to PPI-treatment. The primary endpoint of the study was to support dose selection of linaprazan glurate for the phase III program in eGERD, through central assessment of healing of erosive esophagitis after four weeks of treatment. The sample size, i.e., the number of patients needed, for measuring dose related efficacy was based on the patient cohort with moderate to severe eGERD. After initial endoscopy and other screening procedures, 248 patients were randomized equally into one of five treatment groups, receiving either four weeks treatment with linaprazan glurate in four dose levels, or four weeks lansoprazole in the approved standard eGERD healing dose. Thereafter, an endoscopic evaluation of healing was performed, where healing was defined as no presence of esophageal erosions, i.e., no erosive damage to the esophageal mucosa. After the endoscopic evaluation, all patient groups received lansoprazole for four weeks in a maintenance phase. A retrospective central review of the endoscopy findings was performed, and 162 patients were available for evaluation of the primary endpoint. All enrolled 248 patients were included in the safety analysis.
as §1, §2
The duration of each patient's participation in the study, including screening, blind treatment period and open-label treatment period, was approximately 60 days. The patients were randomized for 4 weeks (28 days, −2/+5 days) of double-blind treatment and were provided with IMP for 35 days (including one additional blister pack dispensed at Visit 2/Day 0) to allow for treatment up to the visit window. […]

[4] = LEED study: safety and tolerability (adverse events); conditions: TEAE, LAN 30 mg QD
[5] = week 4, erosive patients all LA grades, LAN 30 mg QD (N = 20)

For Cc1cccc(C)c1CNc1cc(C(=O)NCCOC(=O)CCCC(=O)O)cn2c(C)c(C)nc12, the water uptake ([1]; 90% RH) was “about 0.2%”, the “water content of the crystals on humidity changes” value ([1]; about 30% to about 80% RH) was “remains substantially constant” and the hygroscopicity ([1]; dynamic vapour sorption) was “very low hygroscopicity”.

With Cc1c(OCC(F)(F)F)ccnc1C[S+]([O-])c1nc2ccccc2[nH]1 (centres unmarked) [lansoprazole, reference compound] the “heartburn severity, rank among groups” value ([2]; FAS Erosive, first week, morning and evening, lansoprazole 30 mg QD) was “highest heartburn severity”, the “severity grade of heartburn, rank among groups” value ([2]; FAS, first week, morning and evening, lansoprazole 30 mg QD) was “highest severity grade of heartburn” and the “heartburn-free days, rank among groups” value ([2]; LA Grade A/B, week 4, lansoprazole 30 mg QD) was “most heartburn-free days”. For the same compound, the “heartburn-free days, rank among groups” value ([2]; LA Grade A/B, week 6 open-label, lansoprazole group) was “highest”, the “heartburn-free days, rank among groups” value ([2]; LA Grade C/D, week 2-4, lansoprazole 30 mg QD) was “lowest percentage of heartburn-free days” and the “heartburn-free days, rank among groups” value ([2]; LA Grade C/D, week 5-8 open-label, lansoprazole group) was “lowest percentage of heartburn-free days”. The “% at most mild symptoms 24-hour days (mean)” value [2, 5] was 88%, the “% heartburn-free 24-hour days (mean)” value [2, 5] was 52% and the “Patients (%) totally free from heartburn” value [2, 5] was 32%. The “Patients (%) with at most mild heartburn” value [2, 5] was 79%, the “Patients (%) with non-mild heartburn” value [2, 5] was 21% and the four-week healing rate ([3]; LA grade A/B) was 81%. The healing rate ([3]; LA grade A/B/C/D, 4 weeks, FIG. 8) was 69%, the “mean LA grade improvement” value ([3]; LA grade C/D, 4 weeks, FIG. 5) was 2.1 and the four-week healing rate ([3]; LA grade C/D) was 38%. The “COVID-19 (%)” value [4] was 4.0%, the COVID-19 events [4] was 2 events and the “Constipation (%)” value [4] was 0.0%. For the same compound, the Constipation events [4] was 0 events, the “Headache (%)” value [4] was 2.0% and the Headache events [4] was 1 events. For the same compound, the “Nausea (%)” value [4] was 8.0% and the Nausea events [4] was 4 events.
